Patent US8653048B2 (Sanlugen Pharmatech Ltd., priority 2009, dated 2014)

What was measured:
[1] = tested on: HT29: a human colon cancer cell line; test: MTT analytical method, HT29 cells; format: cell-based; conditions: HT-29, 72 h
Excerpt: (§1) MTT analytical method was used to test the prodrugs for various tumor cells.
(§2) • 1) Cell lines: NCI-H460, A549, LOVO, HT-29, MDA-MB-231, SGC7901, HepG2 or BEL-7402 cell lines. Culture: adherent culturing in D-MEM (Hyclone, Inc.) containing 10% fetal calf serum. The initial cell concentration was about 3×10^5 /mL. The cell was passaged by 1:3 dilution in every 2-3 days. On the day before the test, the cell was passaged by 1:2 dilution, the cell concentration for the test was 5-10×10^5 /mL. • 2) Dissolution and dilution of compounds: according to the weight and molecular weight of the drugs provided, 100-200 μL of DMSO was added. Then normal saline was added to make the final diluted concentration of the drugs be 5 mM (Note that the final concentration of DMSO should not be more than 10%). • 3) D-MEM or RPMI 1640 cell culture medium, Gibco, Inc. • 4) Fetal calf serum Hyclone, Inc. • 5) Cell dissociation buffer, 0.25% Trypsin+0.02% EDTA. • 6) MTT solution, MTT Powder (Sigma) were dissolved in PBS buffer solution to make a solution of 5 mg/mL. The solution was filtered by a 0.22 μm micropore membrane and stored at −20° C. • 7) PBS buffer solution. • 8) 10% acidified SDS, 0.01N HCl. • 9) Centrifuge tubes, haustorial tubes etc. (BD, Inc.); 96-well plates (Costatr, Inc.) Procedures: • 1) Cell inoculation: Cells grown for 24 hours after passage, which cells were in good growth state, were used. The cells were harvested by the routine method. The cell concentration was adjust with a fresh culture solution to 2×10^5/mL (for adherent cells)-3×10^5/mL (for suspension cells). The adherent cells were inoculated at 100 μL/well and then cultivated in an incubator with 5% CO2 at 37° C. for 24 h. Thereafter the used culture solution was removed and 95 μL/well of fresh culture solution was added. The suspension cells were inoculated at 95 μL/well directly. • 2) Drugs treatment: 9 concentration grades were designed for every drug, and every concentration had 3 wells. The control group had 5 wells. The control group was tested simultaneously in each test. The final concentrations of a drug added were […], and 5 μL normal saline was added to the control group. • 3) Cell culture and detection: the cells were cultured in an incubator with 5% CO2 at 37° C. for 72 h after the drug was added, then 10 μL MTT was added to each well and the culture was continued for 4 h. 100 μL of 10% SDS (containing 0.01N HCl) was added to each well. After 24 h, the absorbance (A) of each well was determined by Bio-rad 680 ELISA with the detection wavelength of 570 nm and the reference wavelength of 630 nm. Calculation:
(§3) First, the absorbance (A) of each well was averaged (removing any data with big difference). […] A0 was the mean absorbance of the control wells. The effect curve of the drug concentration was drawn using EXCEL software and the drug concentration for 50% cell survival was calculated according to an appropriate computing methods.

[2] = tested on: HT29 tumor transplanted in nude mice; test: HT29 tumor transplanted in nude mice, intravenous administration; conditions: for weight loss rate: 20 mg/kg i.v., d17, HT29 nude mice; for toxicity judged by body weight loss, in words: mouse, in vivo, iv; for inhibitory rate (relative tumor volume) at the end of the experiments: HT29
Procedure: 1. […] The drugs were packaged and stored at −20° C.
The treatment starting day was the first day (d0). […] The tumor tissues were removed and weighed. The inhibition rate of tumor growth was calculated.

[3] = tested on: LOVO: a human colon cancer cell line; test: MTT analytical method, LOVO cells; format: cell-based; conditions: 72 h
Excerpt: as §1, §2, §3

[4] = Pharmacokinetics of SL-01 and SL-02 in mice, intragastric; format: in vivo; conditions: both sexes, Kunming, mouse, plasma, po, SL-01 100 mg/kg intragastric
Procedure: Kunming strain white mice (25+1 g, provided by Experimental Animal Center of Shandong University, half of which were male, half were female).
125 mg of SL-01 or SL-02 were weighed accurately and added into 10 mL volumetric flask. Water (containing 0.1% Tween-80) was added to the mark and mixed uniformly to get the suspensions of SL-01 or SL-02.
100 healthy Kunming mice were taken and divided into two groups randomly. The first group was given SL-01 and the second group was given SL-02. Five mice were settled parallel at each time point. SL-01 and SL-02 were administrated intragastricly with a dosage at 100 mg/kg (equivalent to 0.2 mL per mouse). The mice were fasted but allowed to drink for a 12 h period before administration. Blood samples were drawn from eyebase veniplex at 5 min, 15 min, 30 min, 45 min, 1 h, 2 h, 4 h, 6 h, 8 h, 12 h, 24 h, 48 h after the administration and put into heparin sodium treated centrifuge tubes containing 2.5 μL tetrahydrouridine solution (THU, 10 mg/ml) and centrifuged for 15 min at 4000 r/min. Isopropanol (1 mL) was added into the solution and vortexed for 30 s and kept still for 5 min. 2.5 ml of EtOAc was added and votexed and centrifuged at 4000 rpm for 15 minutes. The supernatant was taken and dried by blowing in nitrogen. The dried sample was redissolved in 200 μL HPLC mobile phase solution. 20 μL sample was loaded to the HPLC. The chromatography and peak area was recorded. The plasma concentrations of SL-01 and SL-02 was calculated. The average concentration of SL-01 and SL-02 was plotted with the time.

In the case of `Nc1ccn([C@@H]2O[C@H](CO)[C@@H](O)C2(F)F)c(=O)n1` [Gemcitabine, gemcitabine, reference compound], the IC50 [1] is reported as 7 µM, the weight loss rate [2] is reported as 4% and the “toxicity judged by body weight loss, in words” value [2] is reported as “neither the gemcitabine positive control group nor SL-01 has obvious toxicity”. For the same compound, the IC50 [3] was under 1 µM.

`CCCCCCCCCCCCOC(=O)c1nccnc1C(=O)Nc1ccn([C@@H]2O[C@H](CO)[C@@H](O)C2(F)F)c(=O)n1` [Compound 4, Dodecyl-3-((1-((2R,4R,5R)-3,3-difluoro-4-hydroxy-5-(hydroxymethyl)-tetrahydrofuran-2-yl)-2-oxo-1,2-dihydropyrimidin-4-yl)carbamoyl)pyrazine-2-carboxylate] showed an IC50 [1] of 2 µM, an AUC(0-t) ([4]; analyte SL-01, read-out: AUC0-t, SL-01 Administration Group) of 1810 ng·h/mL and a Cmax ([4]; analyte SL-01, read-out: Cmax, SL-01 Administration Group) of 4370 ng/mL. For the same compound, the MRT last ([4]; analyte SL-01, read-out: MRT0-t, SL-01 Administration Group) was 21.6 min, the half-life ([4]; analyte SL-01, read-out: T1/2, SL-01 Administration Group (converted)) was 31.1 min and the Tmax ([4]; analyte SL-01, read-out: Tmax, SL-01 Administration Group) was 15 min. For the same compound, the “inhibitory rate (relative tumor volume) at the end of the experiments” value ([2]; 20 mg/kg i.v. (Gem group; SL01 middle dosage group)) was 23%, the weight loss rate [2] was 8% and the “inhibitory rate (relative tumor volume) at the end of the experiments” value ([2]; SL01 high dosage group 40 mg/kg i.v.) was 7%. For the same compound, the “toxicity judged by body weight loss, in words” value [2] was “neither the gemcitabine positive control group nor SL-01 has obvious toxicity” and the IC50 [3] was 16 µM.
